In assay [1] the test system is phosphorylation of ERK1/2 in A375 cells containing mutant B-Raf (V600E). As to the kind of experiment: Phospho-ERK FACE assay in A375 (B-Raf mutated) melanoma cell line. The class given is cell-based. The note with it: Homo sapiens, A-375, A375 cells, 2 hours incubation, read-out: IC50, A375 melanoma phospho-ERK assay. On the procedure: The B-Raf activity can also be determined in a B-Raf mutated melanoma cell line, such as the A375 cell line. Inhibition of phosphorylation of ERK1/2 can be measured using a Fast Activated Cell-based ELISA (FACE) from Active Motif (Carlsbad, U.S.A., CA). E.g. A375 cells, which are cells containing a mutant form of B-Raf (V600E) and thus contain high levels of phosphorylated ERK, can be incubated with Raf inhibitors. Then cells can be incubated with anti-phospho-ERK antibody and subsequently with horse radish peroxidase (HRP)-labeled secondary antibody. Finally, chemiluminescence reagents can be added, which react with HRP, to give a luminescence signal.
Determination of B-Raf Activity Using a A375 (B-Raf mutated) Melanoma Cell Line (Phospho-ERK FACE Assay)
Inhibition of phosphorylation of ERK1/2 was measured using a Fast Activated Cell-based ELISA (FACE) from Active Motif (Carlsbad, U.S.A., CA). Briefly, A375 cells, which are cells containing a mutant form of B-Raf (V600E) and thus contain high levels of phosphorylated ERK, were incubated for 2 hours with Raf inhibitors. Then, cells were fixed with paraformaldehyde, washed and following quenching and blocking, incubated with anti-phospho-ERK antibody, and as a control, on a separate plate, with ERK antibody. After washing and removal of the primary antibodies, the fixed cells were incubated with horse radish peroxidase (HRP)-labeled secondary antibody. Finally, chemiluminescence reagents were added, which react with HRP, to give a luminescence signal.
Detailed protocol: A375 cells were cultured in DMEM/F12 (Dulbecco's Modified Eagle Medium Nutrient Mixture F-12) (Invitrogen), supplemented with 10% fetal bovine serum (FBS) (Biowhittaker), 100 U/ml penicillin G and 100 μg/ml streptomycin (Gibco). For the phospho ERK assay, cells were seeded at a density of 15,000 cells/well in 100 μl culture medium in 96-well plates and incubated in a humidified atmosphere at 5% CO2 and 37° C. After 24 hours, cells were washed with DMEM/F12 supplemented with 0.1% FBS (assay medium 120 μl of assay medium was added and the plates were incubated overnight in a humidified atmosphere at 5% CO2 and 37° C. The next day, the assay medium was removed and compounds diluted in assay medium were added to the cells. Final DMSO concentration in the assay was 1%. After 2 hours incubation, cells were fixed by replacing the assay medium with 100 μl of 4% formaldehyde (Bio-Connect, Huissen, The Netherlands) in PBS. After 20 minutes of incubation at room temperature, cells were washed three times with 200 μl wash buffer (0.1% (vol/vol) Triton X-100 in PBS from the FACE kit) followed by an incubation of 20 minutes with 100 μl quenching buffer, containing 1% (vol/vol) hydrogen peroxide (Thermo Fisher Scientific) and 0.1% (vol/vol) sodium azide (Sigma-Aldrich) in phosphate-buffered saline. Cells were washed two times with wash buffer, incubated for 1 hour with 100 μl antibody blocking buffer from the kit and washed two times again. 40 μl of diluted antibody against phosphorylated ERK1/2 (1:500 from the FACE kit) was added and incubated overnight at 4° C. The phospho-ERK antibody has been raised against a synthetic phospho-peptide corresponding to residues Thr202 and Tyr204 of human ERK1 and Thr185 and Tyr187 of human ERK2. For the detection of total ERK, antibody against ERK1 and ERK2 (1:500 from the FACE kit) was added. The excessive primary antibody was washed out, and 100 μl diluted HRP-conjugated anti-rabbit IgG (1:2000 from the FACE kit) was added and incubated for 1 hour at room temperature. Secondary antibody was removed and cells were washed 3 times with wash buffer and twice with PBS. 50 μl per well of FACE chemiluminescent working solution was added. Chemiluminescence was measured on an Envision Multilabel reader.

The target of assay [2] is T1, GST-tagged human recombinant active B-Raf (Δ1-415) (Homo sapiens, UniProt P15056).
T1 construct: GST; purchased Upstate/Millipore
T1 sequence (P15056 416-766, stated change not applied): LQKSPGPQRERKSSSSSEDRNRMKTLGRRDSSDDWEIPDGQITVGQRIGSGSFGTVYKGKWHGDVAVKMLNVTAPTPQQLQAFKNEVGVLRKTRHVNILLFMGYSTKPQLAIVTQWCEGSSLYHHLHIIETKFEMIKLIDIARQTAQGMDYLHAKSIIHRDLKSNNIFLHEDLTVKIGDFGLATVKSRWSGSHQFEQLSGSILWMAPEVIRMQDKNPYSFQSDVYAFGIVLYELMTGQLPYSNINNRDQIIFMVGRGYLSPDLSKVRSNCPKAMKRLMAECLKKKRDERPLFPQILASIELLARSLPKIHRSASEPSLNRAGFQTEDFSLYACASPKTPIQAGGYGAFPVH
As to the kind of experiment: B-Raf kinase activity, IMAP coupled assay (B-Raf/MEK1/ERK2, fluorescence polarization). The class given is biochemical. The settings on record: bounds also given as pIC50 (>6, >7, >8); 60 min pre-incubation with compound, ATP 50 μM; read-out: IC50, B-Raf IMAP assay.
Excerpt: (§1) In another assay the B-Raf kinase activity can be determined by using an IMAP assay (Immobilized Metal Assay for Phosphochemicals-based coupled assay). IMAP is a homogeneous fluorescence polarization (FP) assay based on affinity capture of phosphorylated peptide substrates. IMAP uses fluorescein-labeled peptide substrates that, upon phosphorylation by a protein kinase, bind to so called IMAP nanoparticles, which are derivatized with trivalent metal complexes. Such binding causes a change in the rate of the molecular motion of the peptide, and results in an increase in the FP value observed for the fluorescein label attached to the substrate peptide. In such an assay, B-Raf phosphorylates unactive MEK1. The phosphorylated MEK1 is capable of phosphorylating ERK2, which subsequently phosphorylates the fluorescein-labeled peptide substrate.
Determination of B-Raf Kinase Activity using an IMAP Assay
as §1, with “Inhibition of” for “In another assay the”, “was measured” for “can be determined by”, “Immobilized” for “IMAP assay (Immobilized”, “assay (IMAP).” for “assay).”, “this” for “such an”
Enzymes, substrate and ATP were diluted at all steps in Kinase Reaction buffer (10 mM Tris-HCl, 10 mM MgCl2, 0.01% Tween-20, 0.05% NaN3 pH 7.2, 1 mM DTT). The final volume at the kinase reaction step of the assay in the 384-well plate was 20 μl. The concentrations within brackets are final concentrations in the assay. B-Raf (GST-tagged human recombinant active B-Raf (Δ1-415), Upstate/Millipore; 0.2 U/ml) was pre-incubated with compounds or DMSO (1% final concentration) for 60 minutes at room temperature in the dark. Thereafter, MEK 1 (GST-tagged human recombinant unactive MEK1 (full-length); 64 ng/ml), ERK2 (GST-tagged human recombinant unactive ERK2 (full-length); 600 ng/ml), peptide substrate (Erktide, Molecular Devices; 50 nM) and ATP (50 μM) were added to the wells and the mix was incubated for another 60 minutes at 30° C. in the dark. Then, IMAP progressive binding buffer (75% 1× buffer A, 25% 1× buffer B, 1:900 Progressive Binding Reagent; Molecular Devices) was added followed by an incubation step of 60 minutes at room temperature in the dark. Finally, the FP signal was read on an Envision Multilabel reader (Perkin Elmer).

[3] abbreviates: class given as below 100 nM (pIC50>7).
Setting [4] is: between 1 μM and 100 nM (6<pIC50<7).

A word on the IC50: it is the concentration that inhibits the measured activity by half.

Where two headings read alike, the source gives them in different places.

Take `CNc1c(C(=O)Nc2cc(NC(=O)c3cccc(C(C)(C)C#N)c3)ccc2C)sc2nccnc12` [Example 2, N-(5-(3-(2-cyanopropan-2-yl)benzamido)-2-methylphenyl)-7-(methylamino)thieno[2,3-b]pyrazine-6-carboxamide]: the IC50 was less than 100 nM in assay [1] (setting [3]) and less than 10 nM in assay [2].
Regarding `Cc1ccc(NC(=O)c2cccc(C(C)(C)C#N)c2)cc1NC(=O)c1sc2ncc(Br)nc2c1N` [Example 3, 7-amino-2-bromo-N-(5-(3-(2-cyanopropan-2-yl)benzamido)-2-methylphenyl)thieno[2,3-b]pyrazine-6-carboxamide], the results for the IC50 in assay [1] (setting [4]) and in assay [2] were 100 to 1000 nM and less than 100 nM, respectively.
Turning to `Cc1ccc(NC(=O)c2cccc(C(C)(C)C#N)c2)cc1NC(=O)c1sc2ncc(N(C)C)nc2c1N` [Example 4, 7-amino-N-(5-(3-(2-cyanopropan-2-yl)benzamido)-2-methylphenyl)-2-(dimethylamino)thieno[2,3-b]pyrazine-6-carboxamide], the IC50 in assay [1] (setting [3]) is less than 100 nM; in assay [2], less than 10 nM.
With `Cc1ccc(NC(=O)c2cccc(C(C)(C)C#N)c2)cc1NC(=O)c1sc2ncc(NCCN(C)C)nc2c1N` [Example 5, 7-amino-N-(5-(3-(2-cyanopropan-2-yl)benzamido)-2-methylphenyl)-2-(2-(dimethylamino)ethylamino)thieno[2,3-b]pyrazine-6-carboxamide], the IC50 is 100 to 1000 nM in assay [1] (setting [4]) and less than 10 nM in assay [2].
`CNc1cnc2sc(C(=O)Nc3cc(NC(=O)c4cccc(C(C)(C)C#N)c4)ccc3C)c(N)c2n1` [Example 6, 7-amino-N-(5-(3-(2-cyanopropan-2-yl)benzamido)-2-methylphenyl)-2-(methylamino)thieno[2,3-b]pyrazine-6-carboxamide]: the IC50 in assay [1] (setting [3]) is less than 100 nM; in assay [2] it was less than 10 nM.
Turning to `CCNc1cnc2sc(C(=O)Nc3cc(NC(=O)c4cccc(C(C)(C)C#N)c4)ccc3C)c(N)c2n1` [Example 7, 7-amino-N-(5-(3-(2-cyanopropan-2-yl)benzamido)-2-methylphenyl)-2-(ethylamino)thieno[2,3-b]pyrazine-6-carboxamide], the IC50 in assay [1] (setting [3]) and in assay [2] was less than 100 nM each time.
`Cc1ccc(NC(=O)c2cccc(C(C)(C)C#N)c2)cc1NC(=O)c1sc2ncc(N3CCN(C)CC3)nc2c1N` [Example 8, 7-amino-N-(5-(3-(2-cyanopropan-2-yl)benzamido)-2-methylphenyl)-2-(4-methylpiperazin-1-yl)thieno[2,3-b]pyrazine-6-carboxamide]: the IC50 in assay [1] (setting [4]) was 100 to 1000 nM; in assay [2] it was less than 10 nM.
Turning to `Cc1ccc(NC(=O)c2cccc(C(C)(C)C#N)c2)cc1NC(=O)c1sc2ncc(N3CCOCC3)nc2c1N` [Example 9, 7-amino-N-(5-(3-(2-cyanopropan-2-yl)benzamido)-2-methylphenyl)-2-morpholinothieno[2,3-b]pyrazine-6-carboxamide], the IC50 is less than 100 nM in assay [1] (setting [3]) and less than 10 nM in assay [2].
Take `COCCNc1cnc2sc(C(=O)Nc3cc(NC(=O)c4cccc(C(C)(C)C#N)c4)ccc3C)c(N)c2n1` [Example 10, 7-amino-N-(5-(3-(2-cyanopropan-2-yl)benzamido)-2-methylphenyl)-2-(2-methoxyethylamino)thieno[2,3-b]pyrazine-6-carboxamide]: the values for the IC50 in assay [1] (setting [3]) and in assay [2] were less than 100 nM and less than 10 nM, respectively.
The like results for `Cc1ccc(NC(=O)c2cccc(C(C)(C)C#N)c2)cc1NC(=O)c1sc2ncc(NC3CCOCC3)nc2c1N` [Example 11, 7-amino-N-(5-(3-(2-cyanopropan-2-yl)benzamido)-2-methylphenyl)-2-(tetrahydro-2H-pyran-4-ylamino)thieno[2,3-b]pyrazine-6-carboxamide] were, in that order, less than 100 nM and less than 100 nM.
For the compound `CCNc1cnc2sc(C(=O)Nc3cc(NC(=O)c4cccc(C(C)(C)C#N)c4)ccc3C)cc2n1` [Example 13, N-(5-(3-(2-cyanopropan-2-yl)benzamido)-2-methylphenyl)-2-(ethylamino)thieno[2,3-b]pyrazine-6-carboxamide], the IC50 in assay [1] (setting [3]) and in assay [2] was less than 100 nM in each case.
For `Cc1ccc(NC(=O)c2cccc(C(C)(C)C#N)c2)cc1NC(=O)c1cc2nc(NCCN(C)C)cnc2s1` [Example 14, N-(5-(3-(2-cyanopropan-2-yl)benzamido)-2-methylphenyl)-2-(2-(dimethylamino)ethylamino)thieno[2,3-b]pyrazine-6-carboxamide], the IC50 in assay [1] (class between 10 μM and 1 μM (5<pIC50<6)) was 1000 to 10000 nM; in assay [2], less than 100 nM.
As for `Cc1ccc(NC(=O)c2cccc(C(C)(C)C#N)c2)cc1NC(=O)c1cc2nc(N(C)C)cnc2s1` [Example 15, N-(5-(3-(2-cyanopropan-2-yl)benzamido)-2-methylphenyl)-2-(dimethylamino)thieno[2,3-b]pyrazine-6-carboxamide], the IC50 in assay [1] (setting [3]) was less than 100 nM; in assay [2], less than 10 nM.
For the compound `Cc1ccc(NC(=O)c2cccc(C(C)(C)C#N)c2)cc1NC(=O)c1cc2nc(NC(C)C)cnc2s1` [Example 16, N-(5-(3-(2-cyanopropan-2-yl)benzamido)-2-methylphenyl)-2-(isopropylamino)thieno[2,3-b]pyrazine-6-carboxamide], the IC50 in assay [1] (setting [3]) and in assay [2] was less than 100 nM in each case.

The values are drawn from patent US8669256B2, “Substituted thieno[2,3-b]pyrazine compounds as modulators of B-Raf kinase activity” (Merck Sharp & Dohme B.V., priority 2010, dated 2014).
